ChEMBL document CHEMBL1156206, “Pyrazolone-fused combretastatins and their precursors: synthesis, cytotoxicity, antitubulin activity and molecular modeling studies” (Bioorg Med Chem, 2010)
The source made the active and inactive calls. The calls are words filed in the database; no cut-off is given here.

How the values were obtained:
[1] = tested on: HeLa; test: Cytotoxicity against human HeLa cells after 72 hrs by MTT assay; type: functional, cell-based
[2] = Inhibition of tubulin polymerization at 20 uM relative to control
[3] = tested on: SW-620; test: Cytotoxicity against human SW620 cells after 72 hrs by MTT assay; type: functional, cell-based; settings: SW-620, 72 h
[4] = Inhibition of tubulin polymerization
[5] = tested on: HEp-2; test: Cytotoxicity against human Hep2 cells after 72 hrs by MTT assay; type: functional, cell-based; settings: HEp-2, 72 h
[6] = tested on: RT-112; test: Cytotoxicity against human RT112 cells after 72 hrs by MTT assay; type: functional, cell-based; settings: RT-112, 72 h
[7] = tested on: HEp-2; test: Cytotoxicity against human cisplatin-resistant Hep2 cells after 72 hrs by MTT assay; type: functional, cell-based; settings: HEp-2, 72 h
[8] = tested on: T-24; test: Cytotoxicity against human T24 cells after 72 hrs by MTT assay; type: functional, cell-based; settings: T-24, 72 h
[9] = tested on: MIA PaCa-2; test: Cytotoxicity against human MIAPaCa2 cells after 72 hrs by MTT assay; type: functional, cell-based; settings: MIA PaCa-2, 72 h
[10] = tested on: HeLa; test: Cell cycle arrest in human HeLa cells assessed as accumulation of cells in G2/M phase at 2.2 uM after 24 hrs using propidium iodide by flow cytometry; type: functional
[11] = tested on: HeLa; test: Induction of microtubule network disruption in human HeLa cells at 0.02 uM after 24 hrs by immunofluorescence assay; type: functional, cell-based
[12] = tested on: HeLa; test: Induction of apoptosis in human HeLa cells assessed as cells containing hypodiploid DNA at 0.2 uM after 24 hrs by flow cytometry; type: functional
[13] = tested on: HeLa; test: Cell cycle arrest in human HeLa cells assessed as accumulation of cells in G0/1 phase at 0.2 uM after 24 hrs using propidium iodide by flow cytometry; type: functional
[14] = tested on: HeLa; test: Cell cycle arrest in human HeLa cells assessed as accumulation of cells in S phase at 0.2 uM after 24 hrs using propidium iodide by flow cytometry; type: functional
[15] = tested on: HeLa; test: Induction of microtubule network disruption in human HeLa cells at 0.2 uM after 24 hrs by immunofluorescence assay; type: functional, cell-based
[16] = tested on: HeLa; test: Induction of apoptosis in human HeLa cells assessed as cells containing hypodiploid DNA at 0.02 uM after 24 hrs by flow cytometry; type: functional
[17] = tested on: HeLa; test: Cell cycle arrest in human HeLa cells assessed as accumulation of cells in S phase at 2.2 uM after 24 hrs using propidium iodide by flow cytometry; type: functional
[18] = tested on: HeLa; test: Cell cycle arrest in human HeLa cells assessed as accumulation of cells in G0/1 phase at 2.2 uM after 24 hrs using propidium iodide by flow cytometry; type: functional
[19] = tested on: HeLa; test: Cell cycle arrest in human HeLa cells assessed as accumulation of cells in G0/1 phase at 0.02 uM after 24 hrs using propidium iodide by flow cytometry; type: functional
[20] = tested on: HeLa; test: Induction of apoptosis in human HeLa cells assessed as cells containing hypodiploid DNA at 2.2 uM after 24 hrs by flow cytometry; type: functional
[21] = tested on: HeLa; test: Cell cycle arrest in human HeLa cells assessed as accumulation of cells in G2/M phase at 0.02 uM after 24 hrs using propidium iodide by flow cytometry; type: functional
[22] = tested on: HeLa; test: Cell cycle arrest in human HeLa cells assessed as accumulation of cells in S phase at 0.02 uM after 24 hrs using propidium iodide by flow cytometry; type: functional
[23] = tested on: HeLa; test: Induction of microtubule network disruption in human HeLa cells at 2.2 uM after 24 hrs by immunofluorescence assay; type: functional, cell-based
[24] = tested on: HeLa; test: Cell cycle arrest in human HeLa cells assessed as accumulation of cells in G2/M phase at 0.2 uM after 24 hrs using propidium iodide by flow cytometry; type: functional
[25] = Homo sapiens, HeLa, 72 h, read-out: IC50

Structure (SMILES): COc1ccc(-c2c(-c3cc(OC)c(OC)cc3OC)[nH][nH]c2=O)cc1OC
- IC50 [1, 25]: > 50000 nM
- inhibition [2]: 0%

Structure (SMILES): COC(=O)n1[nH]c(=O)c(-c2cc(OC)c(OC)c(OC)c2)c1-c1ccc(OC)c(F)c1
- IC50 [1, 25]: 1720 nM
- inhibition [2]: 9%

Structure (SMILES): COC(=O)n1[nH]c(=O)c(-c2cc(OC)c(OC)c(OC)c2)c1-c1ccc(OC)c(OC)c1
- IC50 [1, 25]: 36300 nM
- inhibition [2]: 3%

Structure (SMILES): COc1ccc(-c2[nH][nH]c(=O)c2-c2cc(OC)c(OC)c(OC)c2)cc1O
- IC50 [1, 25]: 176 nM
- inhibition [2]: 99%
- IC50 [3]: 543 nM
- IC50 [4]: 1700 nM
- IC50 [5]: 1140 nM
- IC50 [6]: 2080 nM
- IC50 [7]: 709 nM
- IC50 [8]: 619 nM
- IC50 [9]: 462 nM

Structure (SMILES): COC(=O)NNC(=O)/C(=C/c1cccc(F)c1)c1cc(OC)c(OC)c(OC)c1
- IC50 [1, 25]: > 50000 nM
- inhibition [2]: 10%

Structure (SMILES): COC(=O)n1[nH]c(=O)c(-c2cc(OC)c(OC)c(OC)c2)c1-c1cccc2ccccc12
- IC50 [1, 25]: > 50000 nM
- inhibition [2]: 7%

Structure (SMILES): COC(=O)NNC(=O)/C(=C/c1cc(OC)c(OC)cc1OC)c1ccc(OC)c(OC)c1
- IC50 ([1]; hela): Not Active
- inhibition [2]: 0%

Structure (SMILES): COC(=O)NNC(=O)/C(=C/c1ccc(OC)c(OC)c1)c1cc(OC)c(OC)c(OC)c1
- IC50 [1, 25]: > 50000 nM
- inhibition [2]: 0%

Structure (SMILES): COC(=O)NNC(=O)/C(=C/c1ccc(OC)c(F)c1)c1cc(OC)c(OC)c(OC)c1
- IC50 [1, 25]: 667 nM
- inhibition [2]: 66%

Structure (SMILES): COc1ccc(-c2c(-c3cc(OC)c(OC)c(OC)c3)[nH][nH]c2=O)cc1OC
- IC50 [1, 25]: > 50000 nM
- inhibition [2]: 4%

Structure (SMILES): COC(=O)n1[nH]c(=O)c(-c2cc(OC)c(OC)c(OC)c2)c1-c1ccc(OC)cc1
- IC50 [1, 25]: 959 nM
- inhibition [2]: 0%

Structure (SMILES): COC(=O)n1[nH]c(=O)c(-c2cc(OC)c(OC)c(OC)c2)c1-c1ccc(OC)c(OC(C)=O)c1
- IC50 [1, 25]: 337 nM
- inhibition [2]: 0%

Structure (SMILES): COC(=O)NNC(=O)/C(=C/c1cc(OC)c(OC)c(OC)c1)c1ccc(OC)c(OC)c1
- IC50 [1, 25]: > 50000 nM
- inhibition [2]: 0%

Structure (SMILES): COC(=O)NNC(=O)/C(=C/c1ccc(OC)cc1)c1cc(OC)c(OC)c(OC)c1
- IC50 [1, 25]: 1310 nM
- inhibition [2]: 26%

Structure (SMILES): COC(=O)n1[nH]c(=O)c(-c2cc(OC)c(OC)c(OC)c2)c1-c1ccc2ccccc2c1
- IC50 [1, 25]: 523 nM
- inhibition [2]: 3%

Structure (SMILES): COC(=O)n1[nH]c(=O)c(-c2ccc(OC)c(OC)c2)c1-c1cc(OC)c(OC)c(OC)c1
- IC50 ([1]; hela): Not Active
- inhibition [2]: 0%

Structure (SMILES): COC(=O)NNC(=O)/C(=C/c1cccc2ccccc12)c1cc(OC)c(OC)c(OC)c1
- IC50 [1, 25]: 1300 nM
- inhibition [2]: 55%

Structure (SMILES): COc1ccc(/C=C\c2cc(OC)c(OC)c(OC)c2)cc1O [COMBRETASTATIN A4]
- IC50 [1, 25]: 2 nM
- Activity [10]: 91.1%
- inhibition [2]: 89%
- IC50 [3]: 23 nM
- IC50 [4]: 1700 nM
- IC50 [5]: 5.5 nM
- IC50 [6]: 21.6 nM
- Activity [11]: Active
- IC50 [7]: 5.2 nM
- IC50 [8]: 8.7 nM
- IC50 [9]: 7.2 nM

Structure (SMILES): COc1cc(-c2c(-c3cccc(F)c3)[nH][nH]c2=O)cc(OC)c1OC
- IC50 [1, 25]: > 50000 nM
- inhibition [2]: 0%

Structure (SMILES): COc1ccc(-c2[nH][nH]c(=O)c2-c2cc(OC)c(OC)c(OC)c2)cc1OC
- IC50 [1, 25]: 5270 nM
- inhibition [2]: 31%

Structure (SMILES): COC(=O)NNC(=O)/C(=C/c1ccc(OC)c(OC(C)=O)c1)c1cc(OC)c(OC)c(OC)c1
- IC50 [1, 25]: 498 nM
- inhibition [2]: 25%

Structure (SMILES): COc1ccc(-c2[nH][nH]c(=O)c2-c2cc(OC)c(OC)c(OC)c2)cc1F
- IC50 [1, 25]: 158 nM
- inhibition [2]: 100%
- IC50 [3]: 487 nM
- IC50 [5]: 1180 nM
- IC50 [6]: 3320 nM
- IC50 [7]: 684 nM
- IC50 [8]: 1150 nM
- IC50 [9]: 556 nM

Structure (SMILES): COc1cc(-c2c(-c3ccc4ccccc4c3)[nH][nH]c2=O)cc(OC)c1OC
- IC50 [1, 25]: 114 nM
- inhibition [2]: 98%
- IC50 [4]: 1900 nM

Structure (SMILES): COC(=O)NNC(=O)/C(=C/c1ccc2ccccc2c1)c1cc(OC)c(OC)c(OC)c1
- Activity [12]: 21.1%
- Activity [13]: 2.7%
- IC50 [1, 25]: 48 nM
- Activity [14]: 10.8%
- Activity [15]: Active
- Activity [16]: 6.9%
- Activity [10]: 90.5%
- inhibition [2]: 97%
- Activity [17]: 7.9%
- IC50 [3]: 74.3 nM
- IC50 [4]: 2700 nM
- Activity [18]: 1.2%
- IC50 [5]: 54 nM
- IC50 [6]: 196 nM
- Activity [11]: inactive
- Activity [19]: 60.2%
- Activity [20]: 21.4%
- Activity [21]: 11.5%
- IC50 [7]: 51 nM
- Activity [22]: 28.3%
- IC50 [8]: 185 nM
- IC50 [9]: 127 nM
- Activity [23]: Active
- Activity [24]: 86.6%

Structure (SMILES): COC(=O)n1[nH]c(=O)c(-c2ccc(OC)c(OC)c2)c1-c1cc(OC)c(OC)cc1OC
- IC50 ([1]; hela): Not Active
- inhibition [2]: 2%

Structure (SMILES): COC(=O)n1[nH]c(=O)c(-c2cc(OC)c(OC)c(OC)c2)c1-c1cccc(F)c1
- IC50 ([1]; hela): Not Active
- inhibition [2]: 1%

Structure (SMILES): COc1ccc(-c2[nH][nH]c(=O)c2-c2cc(OC)c(OC)c(OC)c2)cc1
- IC50 [1, 25]: 152 nM
- inhibition [2]: 100%
- IC50 [3]: 455 nM
- IC50 [4]: 2600 nM
- IC50 [5]: 529 nM
- IC50 [6]: 1890 nM
- IC50 [7]: 615 nM
- IC50 [8]: 1160 nM
- IC50 [9]: 575 nM

Structure (SMILES): COc1cc(-c2c(-c3cccc4ccccc34)[nH][nH]c2=O)cc(OC)c1OC
- IC50 [1, 25]: > 50000 nM
- inhibition [2]: 0%
